Test results: patent publication US3974140A, “Ureidoacetamido-penicillins” (Bayer Aktiengesellschaft, priority 1970, dated 1976)

Assays:
E. coli A 261 = experiment: MIC, liquid medium test tube series dilution test; format: cell-based; conditions: E. coli A 261, 24 hours, 37°C
Outline: (§1)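 Liquid-medium tube serial dilution in complete nutrient medium, read after 24 h incubation at 37°C. MIC is the lowest concentration giving a non-turbid tube, expressed in units/ml.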

Klebsiella 63 = experiment: MIC, liquid medium test tube series dilution test; format: cell-based; conditions: Klebsiella 63, 24 hours, 37°C
Outline: as §1

E. coli 14 = experiment: MIC, liquid medium test tube series dilution test; format: cell-based; conditions: E. coli 14, 24 hours, 37°C
Outline: as §1

E. coli 183/58 = experiment: MIC, liquid medium test tube series dilution test; format: cell-based; conditions: E. coli 183/58, 24 hours, 37°C
Outline: as §1

Klebsiella K 10 = experiment: MIC, liquid medium test tube series dilution test; format: cell-based; conditions: Klebsiella K 10, 24 hours, 37°C
Outline: as §1

[1] = tested on: Streptoc. faec. ATCC 9790; experiment: MIC, liquid medium test tube series dilution test; format: cell-based; conditions: Strep. faec. (Enterococcus) ATCC 9790, 24 hours, 37°C
Outline: as §1

E. coli C 165 = experiment: MIC, liquid medium test tube series dilution test; format: cell-based; conditions: E. coli C 165, 24 hours, 37°C
Outline: as §1

Proteus vulg. 3400 = experiment: MIC, liquid medium test tube series dilution test; format: cell-based, Proteus vulgaris; conditions: Proteus vulg. 3400, 24 hours, 37°C
Outline: as §1

Proteus vulg. 1017 = experiment: MIC, liquid medium test tube series dilution test; format: cell-based, Proteus vulgaris; conditions: Proteus vulg. 1017, 24 hours, 37°C
Outline: as §1

Staph. aureus 133 [2] = experiment: MIC, liquid medium test tube series dilution test; format: cell-based, Staphylococcus aureus; conditions: Staph. aureus 133, 24 hours, 37°C
Outline: as §1

[3] = Acute toxicity (LD50), intravenous injection into the vein of the tail; format: in vivo; conditions: for LD50: mouse, in vivo, iv
Description: Acute toxicity (LD50) in white mice after
intravenous injection into the vein of the […]

Psdm. aerug. Walter = experiment: MIC, liquid medium test tube series dilution test; format: cell-based, Pseudomonas aerug.; conditions: 24 hours, 37°C
Outline: as §1

Psdm. aerug. Bonn = experiment: MIC, liquid medium test tube series dilution test; format: cell-based, Pseudomonas aerug.; conditions: 24 hours, 37°C
Outline: as §1

Staph. aureus 1777 E = experiment: MIC, liquid medium test tube series dilution test; format: cell-based, Staphylococcus aureus; conditions: 24 hours, 37°C
Outline: as §1

Staph. aureus 133 [4] = experiment: Surviving mice after intraperitoneal infection and subcutaneous therapy; format: in vivo, white mice, CF1 strain; conditions: 2 × 200 units/mouse s.c.
Method: The experiments on animals (see Table 3) were carried out with white mice of the CF1 strain. The infection took place intraperitoneally with the particular bacterium indicated.

[5] = Serum level after subcutaneous administration, measured from microbiological activity against Proteus vulgaris 1017; format: in vivo, white mice
Description: Serum level after subcutaneous ("s.c.") administration to white mice, in units/ml of serum, measured from the microbiological activity against Proteus vulgaris 1017 (ampicillin-resistant).

[6] = i.v. into tail vein, white mice

| SMILES | MIC (E. coli A 261) [units/ml] | MIC (Klebsiella 63) [units/ml] | MIC (E. coli 14) [units/ml] | MIC (E. coli 183/58) [units/ml] | MIC (Klebsiella K 10) [units/ml] | MIC [1] [units/ml] | MIC (E. coli C 165) [units/ml] | MIC (Proteus vulg. 3400) [units/ml] | MIC (Proteus vulg. 1017) [units/ml] | MIC (Staph. aureus 133 [2]) [units/ml] | MIC (Psdm. aerug. Walter) [units/ml] | MIC (Psdm. aerug. Bonn) [units/ml] | MIC (Staph. aureus 1777 E) [units/ml] | further results |
| --- | --- | --- | --- | --- | --- | --- | --- | --- | --- | --- | --- | --- | --- | --- |
| C=CCN(C(C)=O)C(=O)N[C@@H](C(=O)N[C@@H]1C(=O)N2[C@@H]1SC(C)(C)[C@@H]2C(=O)O)c1ccccc1 [Example 86, Sodium D(-)-α-(3-acetyl-3-allyl-ureido)-benzylpenicillin] | > 400 | 50 | 12.5 | 50 | 100 | 100 | 25 | 50 | 50 | < 0.78 | 50 | 25 |  | LD50 [3, 6]: > 3000 mg/kg |
| CN(C(=O)N[C@@H](C(=O)N[C@@H]1C(=O)N2[C@@H]1SC(C)(C)[C@@H]2C(=O)O)c1ccccc1)C(=O)C1CC=CCC1 (single isomer, unassigned) [Example 65, Sodium D(-)-α-(3-(1,2,5,6)-tetrahydrobenzoyl-3-methyl-ureido)benzylpenicillin] | 400 | 12.5 | < 0.78 | 1.56 |  | 50 | 3.12 | 6.25 | 3.12 | < 0.78 | 12.5 | 12.5 | 50 | Number of surviving mice (Staph. aureus 133 [4]; 1 day): 90%; Number of surviving mice (Staph. aureus 133 [4]; 2 days): 80%; Number of surviving mice (Staph. aureus 133 [4]; 3 days): 70%; Number of surviving mice (Staph. aureus 133 [4]; 5 days): 70% |
| CN(C(=O)CCCl)C(=O)N[C@@H](C(=O)N[C@@H]1C(=O)N2[C@@H]1SC(C)(C)[C@@H]2C(=O)O)c1ccccc1 [Example 64, Sodium D(-)-α-(3-β -chloropropionyl-3-methyl-ureido)-benzylpenicillin] | > 400 | 100 | 3.12 | 25 | 100 | 100 | 25 | 100 | 25 | 1.56 | 50 | 25 | 50 | Serum level ([5]; 50.000 units s.c., 10 mins.): 50 units/ml of serum; Serum level ([5]; 50.000 units s.c., 20 mins.): 10 units/ml of serum; Serum level ([5]; 150.000 units s.c., 15 mins.): 42 units/ml of serum; Serum level ([5]; 150.000 units s.c., 30 mins.): 26 units/ml of serum; Serum level ([5]; 150.000 units s.c., 60 mins.): < 10 units/ml of serum |
| CN(C(=O)N[C@@H](C(=O)N[C@@H]1C(=O)N2[C@@H]1SC(C)(C)[C@@H]2C(=O)O)c1ccccc1)C(=O)c1cccs1 [Example 75, Sodium D(-)-α-(3-thenoyl-(2)-3-methyl-ureido)-benzylpenicillin] |  |  | < 0.8 |  |  |  |  |  |  | 0.8 |  |  |  | LD50 [3]: 1500 mg/kg |
| CC1(C)S[C@@H]2[C@H](NC(=O)[C@H](NC(=O)N3CCCCC3=O)c3ccccc3)C(=O)N2[C@H]1C(=O)O [Example 134, Sodium D(-)-α-(1-piperidin-2-on-1-yl-carbonylamino)-benzylpenicillin] | > 400 | 200 | 3.1 | 25 | 50 | 100 | 25 | 50 | 12.5 | 3.1 | 50 | 100 | 200 |  |
| CCOC(=O)N(C)C(=O)N[C@@H](C(=O)N[C@@H]1C(=O)N2[C@@H]1SC(C)(C)[C@@H]2C(=O)O)c1ccccc1 [Example 61, Sodium D(-)-α-(3-ethoxycarbonyl-3-methyl-ureido)-benzylpenicillin] | > 400 | 50 | 3.12 | 6.25 | 100 | 50 | 6.25 | 25 | 25 | < 0.78 | 25 | 12.5 | 200 |  |
| Cc1ccc(C(NC(=O)N(C)C(=O)N(C)C)C(=O)N[C@@H]2C(=O)N3[C@@H]2SC(C)(C)[C@@H]3C(=O)O)cc1 (stereo partly drawn) [Example 119, Sodium R,S-α-(3-dimethylaminocarbonyl-3-methyl-ureido)-4-methylbenzylpenicillin] | > 400 | > 400 | 25 | 400 | 400 | 100 | 200 | > 400 | > 400 | 1.6 | > 400 | > 400 | 200 |  |
| CN(C)C(=O)N(C)C(=O)N[C@@H](C(=O)N[C@@H]1C(=O)N2[C@@H]1SC(C)(C)[C@@H]2C(=O)O)c1ccccc1 [Example 94, Sodium D(-)-α-(3-dimethylaminocarbonyl-3-methyl-ureido)benzylpenicillin] | > 400 | 200 | 12.5 | 100 | 200 | 200 | 50 | 50 | 100 | 3.12 | 100 | 100 |  | LD50 [3]: 4000 mg/kg |
| Cc1ccccc1C(=O)N(C)C(=O)N[C@@H](C(=O)N[C@@H]1C(=O)N2[C@@H]1SC(C)(C)[C@@H]2C(=O)O)c1ccccc1 [Example 129, Sodium D(-)-α-(3-[2-methylbenzoyl]-3-methyl-ureido)-benzylpenicillin] | 50 | 6.25 | 0.78 | 1.56 | 6.25 | 50 | 1.56 | 6.25 | 3.12 | < 0.78 | 12.5 | 6.25 | 6.25 |  |
| CN(C(=O)C=Cc1ccccc1)C(=O)N[C@@H](C(=O)N[C@@H]1C(=O)N2[C@@H]1SC(C)(C)[C@@H]2C(=O)O)c1ccccc1 [Example 63, Sodium D(-)-α-(3-cinnamoyl-3-methyl-ureido)-benzylpenicillin] | 400 | 50 | < 0.78 | < 0.78 | 50 | 50 | 1.56 | 3.12 | 1.56 | < 0.78 | 12.5 | 6.25 | 200 |  |
| Cc1onc(-c2c(Cl)cccc2Cl)c1C(=O)N[C@@H]1C(=O)N2[C@@H]1SC(C)(C)[C@@H]2C(=O)O [Dicycloxacillin, reference compound] |  |  |  |  |  |  |  |  |  |  |  |  |  | Acute toxicity (LD50) [3, 6]: 900 mg/kg |
